Assay: Case report: blood glucose levels in pregnant with gestational diabetes given sesame oil and Nigella sativa oil
Format: in vivo, human
Protocol: A pregnant person diagnosed with gestational diabetes and treated with […] was administered daily with 5 ml sesame oil 100% w/v ([…]) and then co-administered with 5 ml sesame oil 100% w/v (Naissance) and 5 ml 100% w/v Nigella sativa oil (Better Flex). During oil treatment glucamin was not administered.
Blood glucose levels (mg/dL) were determined at the indicated hours.

NC(=O)CC[C@H](N)C(=O)O [glutamin]
Blood glucose levels (6 AM, 10 Sep. 2020): 172 mg/dL
Blood glucose levels (6 AM, 11 Sep. 2020): 125 mg/dL
Blood glucose levels (6 AM, 12 Sep. 2020): 101 mg/dL
Blood glucose levels (6 AM, 13 Sep. 2020): 113 mg/dL
Blood glucose levels (6 AM, 14 Sep. 2020): 94 mg/dL
Blood glucose levels (6 AM, 15 Sep. 2020): 158 mg/dL
Blood glucose levels (6 AM, 16 Sep. 2020): 148 mg/dL
Blood glucose levels (6 AM, 17 Sep. 2020): 99 mg/dL
Blood glucose levels (6 AM, 18 Sep. 2020): 94 mg/dL
Blood glucose levels (11 AM, 10 Sep. 2020): 154 mg/dL
Blood glucose levels (11 AM, 11 Sep. 2020): 109 mg/dL
Blood glucose levels (11 AM, 12 Sep. 2020): 88 mg/dL
Blood glucose levels (11 AM, 13 Sep. 2020): 84 mg/dL
Blood glucose levels (11 AM, 14 Sep. 2020): 90 mg/dL
Blood glucose levels (11 AM, 15 Sep. 2020): 159 mg/dL
Blood glucose levels (11 AM, 17 Sep. 2020): 124 mg/dL
Blood glucose levels (11 AM, 18 Sep. 2020): 84 mg/dL
Blood glucose levels (15 PM, 10 Sep. 2020): 122 mg/dL
Blood glucose levels (15 PM, 11 Sep. 2020): 126 mg/dL
Blood glucose levels (15 PM, 12 Sep. 2020): 106 mg/dL
Blood glucose levels (15 PM, 13 Sep. 2020): 125 mg/dL
Blood glucose levels (15 PM, 14 Sep. 2020): 134 mg/dL
Blood glucose levels (15 PM, 15 Sep. 2020): 98 mg/dL
Blood glucose levels (15 PM, 16 Sep. 2020): 154 mg/dL
Blood glucose levels (15 PM, 17 Sep. 2020): 90 mg/dL
Blood glucose levels (15 PM, 18 Sep. 2020): 89 mg/dL
Blood glucose levels (15 PM, 21 Sep. 2020): 109 mg/dL
Blood glucose levels (21 PM, 10 Sep. 2020): 97 mg/dL
Blood glucose levels (21 PM, 11 Sep. 2020): 103 mg/dL
Blood glucose levels (21 PM, 12 Sep. 2020): 95 mg/dL
Blood glucose levels (21 PM, 13 Sep. 2020): 80 mg/dL
Blood glucose levels (21 PM, 14 Sep. 2020): 125 mg/dL
Blood glucose levels (21 PM, 15 Sep. 2020): 83 mg/dL
Blood glucose levels (21 PM, 16 Sep. 2020): 88 mg/dL
Blood glucose levels (21 PM, 17 Sep. 2020): 77 mg/dL
Blood glucose levels (21 PM, 18 Sep. 2020): 84 mg/dL
Blood glucose levels (21 PM, 21 Sep. 2020): 74 mg/dL

Reference: patent US20240390446A1, “COMPOSITIONS AND METHODS FOR TREATING OR PREVENTING INFLAMMATORY DISEASES INCLUDING DIABETES AND THYROID DISEASES” (priority 2021, published 2024)
